US20220273011A1, “GINGEROL COMPOUNDS AND THEIR USE AS FLAVOR MODIFIERS” (Firmenich SA, priority 2019, published 2022)

Legend:
Type in all cases: in vivo
[1] = test system: salty taste and/or umami taste; assay: Sensory tests in chicken bouillon; settings: for taste description: 10 ppm in chicken bouillon (0.7% salt, 0.04% MSG)
Method: [10]-gingerdiol and [10]-gingerdioldiacetate were tested to evaluate their ability to enhance salty taste and/or umami taste in chicken bouillon (GVA-000589, 0.7% salt, 0.04% MSG, no pepper, with 0.08% Chicken Flexarome 880449 FBS42).
The sensory tests were evaluated for salt intensity, umami intensity, and liking intensity. The experiments were conducted in four designs, i.e. UNF (reference), Ericamide ((E)-3-(3,4-dimethoxyphenyl)-N-(4-methoxyphenethyl)acrylamide, FEMA 4877) at 10 ppm, [10]-gingerdiol at 10 ppm, and [10]-gingerdioldiacetate at 10 ppm.

[2] = test system: salty taste and/or umami taste; assay: Sensory tests in basic beef noodle seasoning; settings: 10 ppm in salt water, in comparison to 0.3% salt; FIG. 8
Method: [6]-gingerdiol, [8]-gingerdiol, and [10]-gingerdioldiacetate were tested to evaluate their abilities to enhance salty taste and/or umami taste in basic beef noodle seasoning (GVA-003129, no salt, no MSG; salt (−25%) 0.525% RTC, MSG 0.25% RTC; Corned Beef 589879 CB at 0.2% RTC).
The sensory tests were evaluated for salt intensity, umami intensity, bitter intensity and liking intensity. The experiments were conducts in four designs, i.e. salt at 0.3%, [6]-gingerdiol at 10 ppm in salt water, [8]-gingerdiol at 10 ppm in salt water, and [10]-gingerdioldiacetate at 10 ppm in salt water.

[3] = test system: salty taste and/or umami taste; assay: Sensory tests of the compounds of formula (I) and (III) in reference solutions (NaCl, MSG, KCl), with or without nose clip; settings: for enhancing effect for a salty or umami taste: references: 0.25% NaCl, 0.05% MSG, 0.25% KCl solution, FIGS. 1-6
Method: Sensory tests of the compounds of the present application were conducted. The compounds of formula (I) and (III) of the present application were tasted in sensory tests for their ability to enhance salty taste and/or umami taste in food products. The sensory tests were evaluated in four characters as saltiness, umami taste, saltiness in the presence of potassium chloride, and potassium chloride taste. The food products were evaluated with or without these compounds relevant to references (as indicated “With NC-Ref”, or “Without NC-Ref” in figures). The reference for saltiness was a 0.25% NaCl solution, the reference for umami was a 0.05% MSG solution, and the salty/bitter reference was a 0.25% KCl solution. The data was analyzed for statistical significances (indicated as * in the figures), such as levels of significance or graph of differences between means.
FIGS. 1-6 show the results of sensory tests for enhancing salty taste and/or umami taste using the compounds of formula (I) and (III) of the present application.

SMILES: COc1ccc(CCNC(=O)/C=C/c2ccc(OC)c(OC)c2)cc1 [Ericamide, (E)-3-(3,4-dimethoxyphenyl)-N-(4-methoxyphenethyl)acrylamide, reference compound]
- taste description [1]: chickeny, balanced, good mouthfeel and salty tastes

SMILES: CCCCC[C@H](O)C[C@H](O)CCc1ccc(O)c(OC)c1 [[6]-gingerdiol]
- bitter intensity [2]: less bitter intensities
- liking intensity [2]: higher liking intensities
- salt intensity [2]: comparable salt intensities
- umami intensity [2]: higher umami intensities

SMILES: CCCCCCC[C@H](O)C[C@H](O)CCc1ccc(O)c(OC)c1 [[8]-gingerdiol]
- enhancing effect for a salty or umami taste [3]: enhancing effect for a salty or umami taste
- bitter intensity [2]: less bitter intensities
- liking intensity [2]: higher liking intensities
- salt intensity [2]: comparable salt intensities
- umami intensity [2]: higher umami intensities

SMILES: CCCCCCC[C@@H](C[C@@H](CCc1ccc(O)c(OC)c1)OC(C)=O)OC(C)=O [[8]-gingerdioldiacetate]
- enhancing salty taste and/or umami taste in food products ([3]; FIG. 4): unexpected and excellent results
- enhancing effect for a salty or umami taste [3]: enhancing effect for a salty or umami taste

SMILES: CCCCCCCCC[C@H](O)C[C@H](O)CCc1ccc(O)c(OC)c1 [[10]-gingerdiol]
- enhancing effect for a salty or umami taste [3]: enhancing effect for a salty or umami taste
- taste description [1]: less round, more salty, more acidic, chickeny balanced, coriander leaf, good and quite clean tastes
- salt intensity ([1]; 10 ppm in chicken bouillon, vs UNF (reference), FIG. 9): unexpected effects in enhancing the salt intensity

SMILES: CCCCCCCCC[C@@H](C[C@@H](CCc1ccc(O)c(OC)c1)OC(C)=O)OC(C)=O [[10]-gingerdioldiacetate]
- enhancing effect for a salty or umami taste [3]: enhancing effect for a salty or umami taste
- bitter intensity [2]: less bitter intensities
- liking intensity [2]: higher liking intensities
- salt intensity [2]: higher salt intensity
- umami intensity [2]: higher umami intensities
- taste description [1]: strange, salty, solvent note, fruity, and some off tastes
